For test [1], the system named is fibroblast cell line L929. Description: Cell viability by MTT assay, L929. Particulars: Mus musculus, L929 fibroblast cells, 24 hours with drug. Type of test: cell-based. The text has this: (§1) The cell line HCT-116 is an adult colorectal cancer cell, and its cells are TGF-β1 and TGF-β2, which are the targeted cells commonly used in preclinical colorectal cancer; the cell line DLD-1 is a […] human colorectal cancer. The cells, which are cancer cells that have invaded the lymph nodes in the late stage, have rapid metastatic growth and are also the targeted cells commonly used in preclinical studies of colorectal cancer; the cell line MCF-7 is an adult […] mastocarcinoma cell with Tx-4 oncogene, which is a targeted cell commonly used in preclinical studies of mastocarcinoma. The cell line A549 is an adult […] lung cancer cell, and its cell characteristic is the ability to synthesize lecithin. Pre-clinical studies of targeted cells are commonly used in lung cancer; cell line EG7 is a lymphoma cell, and its cells with antigen OVA are the targeted cells commonly used in cancer immunotherapy for preclinical studies; cell line L929 is fibroblast, which is the specified cell for preclinical studies of the cytotoxicity standard assay.
(§2) Cell Viability by MTT Assay […]
(§3) 4) The culture solution is extracted, and DMSO is added to dissolve the purple crystals, and the light absorption value is measured at a wavelength of 570 nm.
(§4) 5) The cell survival rate and IC50 of the drug are calculated by comparing the values of the control group with the light absorption values of different groups.

The test system of the next test is lymphoma cell line E.G7. Description: Cell viability by MTT assay, E.G7. The format is cell-based. Particulars: E.G7 lymphoma cells, 24 hours with drug.
Excerpt: as §1, §2, §3, §4

Test [2] relates to human colorectal cancer cell line HCT-116. Description: Cell viability by MTT assay, HCT-116. Type of test: cell-based.
Excerpt: as §1, §2, §3, §4
A general note: Tetrazolium dyes change colour on reduction, which living cells bring about.

The subject of test [3] is human lung cancer cell line A549. The test can be described thus: Cell viability by MTT assay, A549. The format is cell-based. To be noted: A549 lung cancer cells, 24 hours with drug.
Excerpt: as §1, §2, §3, §4

Test [4] relates to human breast cancer cell line MCF-7. Description: Cell viability by MTT assay, MCF-7. Type of test: cell-based. Particulars: MCF7, MCF-7 breast cancer cells, 24 hours with drug.
Excerpt: as §1, §2, §3, §4

For test [5], the system named is human colorectal cancer cell (HT-29) tumors. Description: Animal assay: HT-29 colorectal tumor growth in nu/nu mouse. Type of test: in vivo. Particulars: 10 mg/kg tail vein, 2 times per week, HT-29 in nu/nu mouse. The procedure:
The mouse is used as a model organism to observe the inhibition growth of TG1 on colorectal cancer tumors.
1) The human colorectal cancer cell (HT-29) is implanted in the back of mouse (nu/nu mouse), and the tumors are grown to about 250 mm^3 for grouping.
2) The mice are divided into 3 groups (untreated group, treatment group TG1 and clinical anticancer drug Irinotecan of treatment group), 8 mice in each group.
3) The treatment group TG1 and Irinotecan are administered at a concentration of 10 mg/kg, and the drug is administered in the tail vein at a frequency of 2 times per week.
4) Observe the tumor volume growth, the tumor volume calculation formula is: length×width×width×0.5.

The subject of test [6] is human colorectal cancer cell line DLD-1. Description: Cell viability by MTT assay, DLD-1. The format is cell-based. To be noted: DLD-1 colorectal cancer cells, 24 hours with drug.
Excerpt: as §1, §2, §3, §4

The test system of test [7] is human colorectal cancer (Caco2, SW480, HCT116). Particulars: Saunier et al. 2017; cited from earlier work.

pIC50: −log10 of the molar value.

A word on the pIC50: it is the negative decadic logarithm of the IC50, by convention in mol/L. Take `Oc1ccc(/C=C/c2cc(O)cc(O)c2O)cc1` [TG1, 2,3,5, 4′-tetrahydroxy-trans-stilbene]: the pIC50 was 3.59 in test [1]; 3.74 in the test with lymphoma cell line E.G7; 7.51 in test [2] (Homo sapiens, HCT-116 colorectal cancer cells, MTT assay, 24 hours with drug); 4.20 in test [3]; 3.72 in test [4]; 7.25 in test [6]. Besides, the “ability to poison colorectal cancer cells relative to other cells” value in test [2] (colorectal cancer cells versus other cells, from IC50 values of Table 1) is 1000-6000 times. The same molecule showed a mean tumor volume in test [5] (10th day) of 291 mm^3. Further, the average tumor volume in test [5] (15th day) was found to be 300 mm^3; in test [5] (20th day) it was 461 mm^3.
`Oc1ccc(C=Cc2cc(O)cc(O)c2)cc1` [resveratrol]: the “ability to inhibit cancer cells” value in test [7] was “no any ability to inhibit cancer cells”.

The record behind these values is patent US10849861B2, “Pharmaceutical compound for treating colorectal cancer” (Everest Pharm. Industrial Co., LTD., priority 2018, dated 2020).
